From patent publication US10183915B2, “Axially chiral isomers, and preparation methods therefor and pharmaceutical uses thereof” (MEDSHINE DISCOVERY INC., priority 2015, dated 2019)

What was measured:
[1] = Stability of compounds in ethanol solutions (heated; SFC chiral purity); format: physicochemical; conditions: for Enantiomer Excess of Compound: ethanol solution
From the text: Test 3: Evaluation of the Stability of Compounds in Ethanol Solutions.
An appropriate amount of test compound was accurately weighed, added into ethanol to obtain an ethanol solution. The ethanol solution of the compound was stirred in a heated oil bath. At the end of the test, the purity and chiral purity of the compound was detected by high performance liquid chromatography (HPLC) or LC-MS (LCMS) and supercritical fluid chromatography (SFC).

[2] = Stability of compounds in SD rat plasma; format: in vitro ADME; conditions: for Recovery (% remaining): SD rat plasma, 2 μM, 37° C.
Experimental: (§1) Test 5: Evaluation of the Stability of Compounds in Rat Plasma and Human Plasma
(§2) 2. Experimental Procedures and Methods • 2.1 Prior to the experiment, the frozen plasma stored at −40° C. was thawed at room temperature and incubated in a 37° C. water bath for 5-10 min; centrifuged at 4000 rpm for 5 min, to remove impurities and lipids in the plasma. Measured the value of pH, if required, adjusted it to 7.4±0.1. • 2.2 Prepared 400 μM intermediate solution by diluting 4 μL of the working solution (10 mM) with 96 μL DMSO. • 2.3 Preparation of incubation samples: Remove 3 μL of intermediate solution (400 μM) to mix with 597 μL of blank plasma to achieve 2 μM of final concentration. Incubate each time point samples (0 min, 10 min, 30 min, 60 min, 120 min, in duplicate) at 37° C. in water bath. • 2.4 An aliquot of 100 μL samples of the final spiked plasma for each time point were removed to sample collected plates, added 400 μL of stop solution (200 ng/mL Tolbutamide plus 20 ng/mL Buspirone in 50% ACN/MeOH) to precipitate protein. Mixed thoroughly. • 2.5 Centrifuged each plate at 4,000 rpm for 20 min. Transfered an aliquot of supernatant (100 μL) from each well to sample plate and mixed with 200 μL ultra pure water. Shaked the plate at 800 rpm for about 10 min before submitting to LC-MS/MS analysis. 3. Experimental Data Analysis
(§3) The ratio of the peak area to the internal standard peak area was used to assess the decrease of the test compound to be measured. The % remaining of the test compound after incubation in plasma was calculated using following equation: % Remaining=100×(PAR at appointed incubation time/PAR at T0 time)
(§4) wherein PAR is the peak area ratio of analyte versus internal standard (IS)
(§5) The appointed incubation time points are: 0 min, 10 min, 30 min, 60 min, 120 min; T0: Samples prior to incubation.

[3] = Stability of compounds in DMSO solutions (heated; SFC chiral purity); format: physicochemical; conditions: for Enantiomer Excess of Compound: DMSO solution
Experimental: Example 4: Evaluation of the Stability of Compounds in DMSO Solutions
An appropriate amount of test compound was accurately weighed, added into DMSO to obtain a DMSO solution. The DMSO solution of the compound was stirred in a heated oil bath. At the end of the test, a sample amount of the DMSO solution was diluted with ethanol and the purity and chiral purity of the compound was detected by high performance liquid chromatography (HPLC) or LC-MS (LCMS) and supercritical fluid chromatography (SFC).

[4] = Stability of solid compounds in ambient temperature (15° C., nitrogen cabinet, dark; SFC chiral purity); format: physicochemical; conditions: for Enantiomer Excess of the Compound: solid
Experimental: Test 2: Evaluation of the Stability of Solid Compounds in Ambient Temperature.
20 mg of test compound was placed into 5 mL brown transparent sealed container with stopper and stoned in the nitrogen cabinet (15° C.) in the dark. After the preset storage time, about 2 mg of test compound was accurately weighed, added into ethanol to prepare 1 mg/mL ethanol solution. The purity and chiral purity of the compound was detected by high performance liquid chromatography (HPLC) or LC-MS (LCMS) and supercritical fluid chromatography (SFC).

[5] = Stability of compounds in human plasma; format: in vitro ADME
Experimental: as §1, §2, §3, §4, §5

human URAT1 = target: T1, human URAT1 (Homo sapiens, UniProt Q96S37); test: Inhibition of URAT1-mediated uptake of 14C-labeled uric acid in stably transfected HEK293 cells; format: cell-based; conditions: multiple parallel tests
T1 construct: host or cells: HEK293
T1 sequence (Q96S37 1-553): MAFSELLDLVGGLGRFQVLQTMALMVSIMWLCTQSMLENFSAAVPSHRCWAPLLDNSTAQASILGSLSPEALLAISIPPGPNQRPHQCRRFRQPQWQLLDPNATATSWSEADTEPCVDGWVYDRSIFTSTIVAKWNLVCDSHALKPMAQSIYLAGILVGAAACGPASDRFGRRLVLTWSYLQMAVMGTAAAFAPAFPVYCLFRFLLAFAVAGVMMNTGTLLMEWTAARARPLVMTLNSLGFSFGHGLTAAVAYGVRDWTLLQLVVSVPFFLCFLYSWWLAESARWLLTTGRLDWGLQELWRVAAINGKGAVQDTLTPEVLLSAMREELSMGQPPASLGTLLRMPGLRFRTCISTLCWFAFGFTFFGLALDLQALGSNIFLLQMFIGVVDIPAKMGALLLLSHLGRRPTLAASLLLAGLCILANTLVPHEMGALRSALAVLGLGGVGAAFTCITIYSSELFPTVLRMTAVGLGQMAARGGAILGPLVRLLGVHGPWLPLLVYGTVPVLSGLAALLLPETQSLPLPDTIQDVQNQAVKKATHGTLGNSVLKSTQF
Experimental: A HEK293 cell line stably transfected with URAT-1 (uric acid transporter) gene was used to determine the IC50 value of the compound to inhibit the reabsorption of uric acid.
URAT-1 (HEK293) cell lines: HEK293 cell line with human URAT1 stable transfected (the cell line was constructed by WuXi AppTec in Shanghai).
4) The cells were diluted with culture medium to 2.5×10^5 cells/mL. The diluted cells was seeded into 24-well plates (800 μg/hole, 2×10^5 cells/hole) coated with rat tail collagen and the plates were incubated at 37° C. under 5% CO2 overnight.
1) The cells were inoculated on the 24-well plates and discarded 16-18 hours later. Add 600 μL HBSS buffer to each hole and clean it two times
2) Absorb the HBSS buffer and then add 180 μL of HBSS buffer to each hole.
1) Dissolve the compound powder in 100% DMSO. […]
10 μL of ^14C-Uric acid solution was diluted and added to each well of 24-well plates and the final concentration of ^14C-uric acid was 50 μM. […] Collect the cell lysis in liquid scintillation and read the Tri-Carb signal in liquid scintillation counter after adding the liquid scintillation solution.
Based on the luminescence data, the inhibitory effect of compounds on URAT-1 was analyzed, and the percentage of inhibition data was calculated. […]

## O=C(O)CSc1nnc(Br)n1-c1ccc(C2CC2)c2ccccc12 (single isomer, unassigned) [(+)-Lesinurad]
[1]; 37° C., 3 days
  Enantiomer Excess of Compound: Unchanged
[1]; 70° C., 3 days
  Enantiomer Excess of Compound: Unchanged
[1]; heating time 0 day
  Enantiomer Excess of Compound: 95.9%
[1]; heating to 37° C. and up to 70° C.
  Stability in ethanol solutions (SFC purity): very stable
[2]; 2 hours
  Stability after co-incubation with SD-rat plasma: very stable
[2]; 30 min
  Recovery (% remaining): 100.3%
[2]; 60 min
  Recovery (% remaining): 99.7%
[2]; 120 min
  Recovery (% remaining): 101.2%
[3]; 80° C., 0 h
  Enantiomer Excess of Compound: 95.9%
[3]; 80° C., 2 × 24 h
  Enantiomer Excess of Compound: Unchanged
[3]; 80° C., 4 × 24 h
  Enantiomer Excess of Compound: Unchanged
[3]; 80° C., 2 h
  Enantiomer Excess of Compound: Unchanged
[3]; 80° C., 4 h
  Enantiomer Excess of Compound: Unchanged
[3]; 80° C., 8 h
  Enantiomer Excess of Compound: Unchanged
[3]; 80° C., 24 h
  Enantiomer Excess of Compound: Unchanged
[3]; 120° C., 0 h
  Enantiomer Excess of Compound: 95.9%
[3]; 120° C., 2 × 24 h
  Enantiomer Excess of Compound: Unchanged
[3]; 120° C., 4 × 24 h
  Enantiomer Excess of Compound: Unchanged
[3]; 120° C., 2 h
  Enantiomer Excess of Compound: Unchanged
[3]; 120° C., 4 h
  Enantiomer Excess of Compound: Unchanged
[3]; 120° C., 8 h
  Enantiomer Excess of Compound: Unchanged
[3]; 120° C., 24 h
  Enantiomer Excess of Compound: Unchanged
[3]; 160° C., 0 h
  Enantiomer Excess of Compound: 95.9%
[3]; 160° C., 8 h
  Enantiomer Excess of Compound: Unchanged
[3]; heating to 80° C., 120° C. and up to 160° C.
  Stability in DMSO solutions (SFC purity): very stable
[4]; storing time 0 day
  Enantiomer Excess of the Compound: 95.9%
[4]; storing time >80 days
  Enantiomer Excess of the Compound: Unchanged
[4]; storing over 80 days
  Stability of the solid powder (SFC purity): very stable
[5]; 2 hours
  Stability after co-incubation with human plasma: very stable
[5]; human plasma, 2 μM, 37° C., 120 min
  Recovery (% remaining): 100.4%
[5]; human, plasma, pH 7.4, human plasma, 2 μM, 37° C., 0 min, read-out: Recovery (% remaining)
  recovery at 0 min, 2 μM: 100%
[5]; human, plasma, pH 7.4, human plasma, 2 μM, 37° C., 10 min, read-out: Recovery (% remaining)
  recovery at 10 min, 2 μM: 100%
[5]; human, plasma, pH 7.4, human plasma, 2 μM, 37° C., 30 min, read-out: Recovery (% remaining)
  recovery at 30 min, 2 μM: 99.5%
[5]; human, plasma, pH 7.4, human plasma, 2 μM, 37° C., 60 min, read-out: Recovery (% remaining)
  recovery at 60 min, 2 μM: 99.4%
Human URAT1
  In vitro potency against URAT1 compared with (−)-Lesinurad and (±)-Lesinurad: obviously higher in vitro potency
